ChEMBL document CHEMBL1158226, “Comparative study of the vasodilatory effects of three quinazoline alkaloids isolated from Evodia rutaecarpa” (J Nat Prod, 1996)
The source made the active and inactive calls. No cut-off for these calls is given here.

Assays:
[1] = Antagonist activity at 5-HT receptor in Sprague-Dawley rat endothelium denuded thoracic aorta assessed as inhibition of 5HT-induced contraction; format: functional, tissue-based
Aorta [2] = assay: Vasodilatory activity in endothelium-denuded Sprague-Dawley rat thoracic aortic ring assessed as inhibition of phenylephrine-induced contraction preincubated with TEA for 1 hr; format: functional, tissue-based
Aorta [3] = assay: Vasodilatory activity in Sprague-Dawley rat thoracic aortic ring assessed as inhibition of potassium chloride-induced contraction; format: functional, tissue-based
Aorta [4] = assay: Vasodilatory activity in Sprague-Dawley rat endothelium-intact thoracic aortic ring assessed as inhibition of phenylephrine-induced contraction at 0.1 to 100 uM; format: functional
Aorta [5] = assay: Vasodilatory activity in Sprague-Dawley rat endothelium-denuded thoracic aortic ring assessed as inhibition of phenylephrine-induced contraction; format: functional, tissue-based
Aorta [6] = assay: Vasodilatory activity in Sprague-Dawley rat endothelium-intact thoracic aortic ring assessed as inhibition of phenylephrine-induced contraction; format: functional, tissue-based
[7] = Binding affinity to DHP binding site of L-type calcium channel by radioligand binding assay
Aorta [8] = assay: Vasodilatory activity in Sprague-Dawley rat endothelium-denuded thoracic aortic ring assessed as inhibition of phenylephrine-induced contraction at 0.1 to 100 uM; format: functional
Aorta [9] = assay: Vasodilatory activity in endothelium-denuded Sprague-Dawley rat thoracic aortic ring assessed as inhibition of phenylephrine-induced contraction preincubated with L-NAME for 10 mins; format: functional, tissue-based
[10] = Antagonist activity at alpha-adrenoceptor in Sprague-Dawley rat endothelium denuded thoracic aorta assessed as inhibition of phenylephrine-induced contraction; format: functional, tissue-based
[11] = Binding affinity to DHP binding site of L-type calcium channel at > 100 uM by radioligand binding assay
Aorta [12] = assay: Vasodilatory activity in endothelium-denuded Sprague-Dawley rat thoracic aortic ring assessed as inhibition of phenylephrine-induced contraction in absence of L-NAME; format: functional, tissue-based
[13] = target: T1, Adrenergic receptor alpha-1 (Rattus norvegicus, UniProt P15823+P23944+P43140); assay: Displacement of [3H]prazosin from alpha1 adrenoceptor in rat heart membrane; format: cell membranes
T1 sequence (P15823 whole entry): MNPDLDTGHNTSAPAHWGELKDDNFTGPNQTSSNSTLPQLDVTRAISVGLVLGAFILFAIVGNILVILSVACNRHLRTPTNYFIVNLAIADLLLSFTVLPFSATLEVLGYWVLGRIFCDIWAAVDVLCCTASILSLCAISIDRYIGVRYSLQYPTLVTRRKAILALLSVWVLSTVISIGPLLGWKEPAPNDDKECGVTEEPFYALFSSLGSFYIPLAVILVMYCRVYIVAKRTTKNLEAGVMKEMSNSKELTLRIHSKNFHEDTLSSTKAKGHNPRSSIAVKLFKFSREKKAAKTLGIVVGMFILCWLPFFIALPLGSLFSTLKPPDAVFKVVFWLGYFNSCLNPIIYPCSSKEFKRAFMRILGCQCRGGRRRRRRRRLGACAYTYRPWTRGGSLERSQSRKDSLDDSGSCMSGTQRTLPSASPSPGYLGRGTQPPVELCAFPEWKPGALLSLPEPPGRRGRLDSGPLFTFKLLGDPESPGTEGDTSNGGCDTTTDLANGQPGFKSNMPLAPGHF
T1 sequence (P23944 whole entry): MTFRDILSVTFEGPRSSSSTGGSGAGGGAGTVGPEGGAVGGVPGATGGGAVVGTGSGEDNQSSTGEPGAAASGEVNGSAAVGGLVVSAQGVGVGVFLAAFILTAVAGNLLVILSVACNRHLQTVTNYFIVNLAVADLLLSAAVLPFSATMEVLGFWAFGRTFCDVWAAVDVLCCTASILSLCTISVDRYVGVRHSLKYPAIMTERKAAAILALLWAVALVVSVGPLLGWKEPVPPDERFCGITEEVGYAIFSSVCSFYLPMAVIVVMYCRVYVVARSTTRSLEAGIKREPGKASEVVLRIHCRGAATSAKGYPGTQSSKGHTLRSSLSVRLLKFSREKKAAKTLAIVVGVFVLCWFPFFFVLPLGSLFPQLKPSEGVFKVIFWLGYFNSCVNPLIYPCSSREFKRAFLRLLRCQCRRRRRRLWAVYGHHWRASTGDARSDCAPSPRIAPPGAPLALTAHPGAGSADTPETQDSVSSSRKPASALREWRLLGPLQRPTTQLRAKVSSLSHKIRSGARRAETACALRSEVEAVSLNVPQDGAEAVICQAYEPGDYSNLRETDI
T1 sequence (P43140 whole entry): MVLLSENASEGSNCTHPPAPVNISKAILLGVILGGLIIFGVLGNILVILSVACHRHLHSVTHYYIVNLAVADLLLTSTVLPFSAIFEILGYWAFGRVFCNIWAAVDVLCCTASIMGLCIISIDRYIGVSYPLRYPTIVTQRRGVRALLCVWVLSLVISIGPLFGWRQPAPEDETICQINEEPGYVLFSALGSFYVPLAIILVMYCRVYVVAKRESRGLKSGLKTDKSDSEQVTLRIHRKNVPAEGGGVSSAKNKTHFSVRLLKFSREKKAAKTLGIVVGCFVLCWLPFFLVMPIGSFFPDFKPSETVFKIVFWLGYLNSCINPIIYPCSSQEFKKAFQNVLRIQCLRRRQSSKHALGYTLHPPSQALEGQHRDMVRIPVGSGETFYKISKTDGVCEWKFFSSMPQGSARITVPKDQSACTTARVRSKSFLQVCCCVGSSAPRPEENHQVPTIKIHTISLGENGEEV

Aorta [14] = assay: Vasodilatory activity in Sprague-Dawley rat endothelium-intact thoracic aortic ring assessed as inhibition of phenylephrine-induced contraction at 100 uM; format: functional; parameters: scale not given: the % may be the effect or the level left

CN1c2ccccc2C(=O)N2CCc3c([nH]c4ccccc34)[C@@H]21 [EVODIAMINE]
pA2 [1]: 6.25
Activity (Aorta [2]): Active
Activity (Aorta [3]): Active
Emax (Aorta [4]): 100%
EC50 (Aorta [5]): 8140 nM
EC50 (Aorta [6]): 930 nM
Activity [7]: inactive
Emax (Aorta [8]): 49.8%
EC50 (Aorta [9]): 2920 nM

C[n+]1c2n(c(=O)c3ccccc31)CCc1c-2[nH]c2ccccc12 [DEHYDROEVODIAMINE]
Activity (Aorta [2]): Active
pA2 [10]: 6.89
Activity [11]: Active
Emax (Aorta [4]): 100%
EC50 (Aorta [5]): 7780 nM
EC50 (Aorta [6]): 1640 nM
Emax (Aorta [8]): 100%
EC50 (Aorta [12]): 1600 nM
Ki [13]: 2400 nM
EC50 (Aorta [9]): 5830 nM

O=c1c2ccccc2nc2n1CCc1c-2[nH]c2ccccc12 [RUTAECARPINE]
Activity (Aorta [2]): Active
Activity (Aorta [14]): 72%
Emax (Aorta [4]): 96%
EC50 (Aorta [5]): 1750 nM
EC50 (Aorta [6]): 1050 nM
Activity [7]: inactive
Emax (Aorta [8]): 23%
